The values that follow come from patent US11208400B2, “Substituted 6-(1H-pyrazol-1-yl)pyrimidin-4-amine derivatives and uses thereof” (Bayer Aktiengesellschaft, priority 2016, dated 2021).

Broadly, the IC50 is the concentration at which inhibition is half-maximal. Low readings indicate greater potency in that assay, high ones weaker potency in that assay.

This experiment deals with T1, human Npt2a (Homo sapiens, UniProt Q06495).
T1 construct: expressed in transfected cells
T1 sequence (Q06495 1-639): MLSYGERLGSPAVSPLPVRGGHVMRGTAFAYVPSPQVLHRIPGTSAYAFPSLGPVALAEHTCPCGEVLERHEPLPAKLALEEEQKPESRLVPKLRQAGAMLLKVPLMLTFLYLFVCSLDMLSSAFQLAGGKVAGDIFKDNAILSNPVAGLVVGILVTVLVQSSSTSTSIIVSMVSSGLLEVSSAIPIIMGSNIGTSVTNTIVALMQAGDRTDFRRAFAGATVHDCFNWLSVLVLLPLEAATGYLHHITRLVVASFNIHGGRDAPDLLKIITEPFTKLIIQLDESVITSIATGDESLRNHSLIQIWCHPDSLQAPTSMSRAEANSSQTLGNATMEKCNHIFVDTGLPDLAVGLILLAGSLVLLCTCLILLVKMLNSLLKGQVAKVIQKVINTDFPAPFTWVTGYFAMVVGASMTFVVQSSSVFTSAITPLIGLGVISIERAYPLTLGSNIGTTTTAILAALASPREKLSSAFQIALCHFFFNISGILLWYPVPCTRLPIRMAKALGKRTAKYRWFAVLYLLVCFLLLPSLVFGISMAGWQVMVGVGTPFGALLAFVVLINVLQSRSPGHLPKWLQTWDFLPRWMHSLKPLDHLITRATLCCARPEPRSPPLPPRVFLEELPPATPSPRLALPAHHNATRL
The experiment is described as follows: Npt2a activity cell based assay, membrane potential dye, CHO T-REx hNpt2a cells. Particulars: doxycycline-induced, depolarization by sodium phosphate influx, average or median values if tested more than once. The procedure, abridged:
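Doxycycline-induced (0.5 μg/mL, 24 h) CHO T-REx cells were loaded with membrane potential dye in sodium-free NHE buffer (pH 7.4) and exposed to compound (50 μM–1 nM, 5 min, room temperature).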
The molecule `Cc1cc(C(F)F)n(-c2cc(Nc3c(Cl)c(-c4ccc(C#N)cc4)nn3CC3CC3)ncn2)n1` [Example 445, 4-[4-chloro-1-(cyclopropylmethyl)-5-({6-[5-(difluoromethyl)-3-methyl-1H-pyrazol-1-yl]pyrimidin-4-yl}amino)-1H-pyrazol-3-yl]benzonitrile] came in with an IC50 of 12 nM.

The molecule `CCOC(=O)c1c(C)nn(-c2cc(Nc3c(C)c(-c4ccc(C)nc4)nn3CC3CC3)ncn2)c1C` [Example 418, ethyl 1-(6-{[1-(cyclopropylmethyl)-4-methyl-3-(6-methylpyridin-3-yl)-1H-pyrazol-5-yl]amino}pyrimidin-4-yl)-3,5-dimethyl-1H-pyrazole-4-carboxylate] had an IC50 of 65 nM.

Consider `Cc1nn(-c2cc(Nc3c(C)c(-c4ccc(F)cc4)nn3CC3CC3)ncn2)c(C)c1C(O)C1CC1` (single isomer, unassigned) [Example 420, cyclopropyl[1-(6-{[1-(cyclopropylmethyl)-3-(4-fluorophenyl)-4-methyl-1H-pyrazol-5-yl]amino}pyrimidin-4-yl)-3,5-dimethyl-1H-pyrazol-4-yl]methanol], for which the IC50 was found to be 24 nM.

`Cc1cc(C)n(-c2cc(Nc3n[nH]c(-c4ccc(C#N)cc4)c3C)ncn2)n1` [Example 135, 4-(3-{[6-(3,5-dimethyl-1H-pyrazol-1-yl)pyrimidin-4-yl]amino}-4-methyl-1H-pyrazol-5-yl)benzonitrile] gave an IC50 of 700 nM.

Molecule `Cc1nn(-c2cc(Nc3nn(C)c(-c4ccc(F)cc4)c3C)ncn2)c(C(C)(C)O)c1Cl` [Example 261, 2-[4-chloro-1-(6-{[5-(4-fluorophenyl)-1,4-dimethyl-1H-pyrazol-3-yl]amino}pyrimidin-4-yl)-3-methyl-1H-pyrazol-5-yl]propan-2-ol] displayed an IC50 of 20 nM.

The molecule `CSc1c(C)nn(-c2cc(Nc3c(C)c(-c4ccc(F)cc4)nn3CC3CC3)ncn2)c1C` [Example 399, N-[1-(cyclopropylmethyl)-3-(4-fluorophenyl)-4-methyl-1H-pyrazol-5-yl]-6-[3,5-dimethyl-4-(methylsulfanyl)-1H-pyrazol-1-yl]pyrimidin-4-amine] had an IC50 of 6 nM.

In the case of `Cc1cc(C)n(-c2cc(Nc3c(C)c(-c4ccc(F)cn4)nn3C)ncn2)n1` [Example 467, 6-(3,5-dimethyl-1H-pyrazol-1-yl)-N-[3-(5-fluoropyridin-2-yl)-1,4-dimethyl-1H-pyrazol-5-yl]pyrimidin-4-amine], it took 69 nM to reach half-maximal inhibition (IC50).

The molecule `Cc1c(-c2ccc(C#N)cc2)nn(CC2CC2)c1Nc1cc(-n2nc(C)c3ccncc32)ncn1` [Example 231, 4-[1-(cyclopropylmethyl)-4-methyl-5-{[6-(3-methyl-1H-pyrazolo[3,4-c]pyridin-1-yl)pyrimidin-4-yl]amino}-1H-pyrazol-3-yl]benzonitrile] gave an IC50 of 2 nM.

In turn, `CCc1c(Nc2cc(-n3nc(C)c(Cl)c3C)ncn2)nn(CC2CC2)c1-c1ccc(F)cc1` [Example 144, 6-(4-chloro-3,5-dimethyl-1H-pyrazol-1-yl)-N-[1-(cyclopropylmethyl)-4-ethyl-5-(4-fluorophenyl)-1H-pyrazol-3-yl]pyrimidin-4-amine] had an IC50 of 520 nM.

`CCc1c(-c2ccc(F)cc2)nn(Cc2nnnn2C)c1Nc1cc(-n2nc(C)cc2C)ncn1` [Example 391, 6-(3,5-dimethyl-1H-pyrazol-1-yl)-N-{4-ethyl-3-(4-fluorophenyl)-1-[(1-methyl-1H-tetrazol-5-yl)methyl]-1H-pyrazol-5-yl}pyrimidin-4-amine] returned an IC50 of 13 nM.

Molecule `Cc1nn(-c2cc(Nc3nn(C)c(-c4ccc(OC(F)(F)F)cc4)c3C)ncn2)c(C)c1Cl` [Example 117, 6-(4-chloro-3,5-dimethyl-1H-pyrazol-1-yl)-N-{1,4-dimethyl-5-[4-(trifluoromethoxy)phenyl]-1H-pyrazol-3-yl}pyrimidin-4-amine] had an IC50 of 19 nM.

`CCOC(=O)c1c(C)nn(-c2cc(Nc3nn(CC4CC4)c(-c4ccc(F)cc4)c3C)ncn2)c1C` [Example 151, ethyl 1-(6-{[1-(cyclopropylmethyl)-5-(4-fluorophenyl)-4-methyl-1H-pyrazol-3-yl]amino}pyrimidin-4-yl)-3,5-dimethyl-1H-pyrazole-4-carboxylate] registered an IC50 of 390 nM.

Take `Cc1nn(-c2cc(Nc3c(C)c(-c4ccc(F)cc4F)nn3CC3CC3)ncn2)c(C)c1C(C)(C)O` [Example 368, 2-[1-(6-{[1-(cyclopropylmethyl)-3-(2,4-difluorophenyl)-4-methyl-1H-pyrazol-5-yl]amino}pyrimidin-4-yl)-3,5-dimethyl-1H-pyrazol-4-yl]propan-2-ol]: the IC50 amounted to 7 nM.

For the molecule `COc1c(Nc2cc(-n3nc(C)cc3C)ncn2)nn(C)c1-c1ccc(F)cc1` [Example 253, 6-(3,5-dimethyl-1H-pyrazol-1-yl)-N-[5-(4-fluorophenyl)-4-methoxy-1-methyl-1H-pyrazol-3-yl]pyrimidin-4-amine], the IC50 turned out to be 67 nM.

The molecule `COc1c(C)nn(-c2cc(Nc3nn(C)c(-c4ccc(F)cc4)c3C)ncn2)c1C` [Example 434, N-[5-(4-fluorophenyl)-1,4-dimethyl-1H-pyrazol-3-yl]-6-(4-methoxy-3,5-dimethyl-1H-pyrazol-1-yl)pyrimidin-4-amine] gave an IC50 of 7 nM.

`Cc1cc(C(C)(C)O)n(-c2cc(Nc3c(C)c(-c4ccc(C(F)(F)F)cc4)nn3CC3CC3)ncn2)n1` [Example 293, 2-{1-[6-({1-(cyclopropylmethyl)-4-methyl-3-[4-(trifluoromethyl)phenyl]-1H-pyrazol-5-yl}amino)pyrimidin-4-yl]-3-methyl-1H-pyrazol-5-yl}propan-2-ol]: the IC50 amounted to 570 nM.

`Cc1nn(-c2cc(Nc3nn(C)c(-c4ccc(F)cc4)c3C)ncn2)c(C)c1F` [Example 267, 6-(4-fluoro-3,5-dimethyl-1H-pyrazol-1-yl)-N-[5-(4-fluorophenyl)-1,4-dimethyl-1H-pyrazol-3-yl]pyrimidin-4-amine] registered an IC50 of 27 nM.

As to `CCc1c(Nc2cc(-n3nc4c(c3C)C(=O)CC4)ncn2)nn(C)c1-c1ccc(F)cc1` [Example 274, 2-(6-{[4-ethyl-5-(4-fluorophenyl)-1-methyl-1H-pyrazol-3-yl]amino}pyrimidin-4-yl)-3-methyl-5,6-dihydrocyclopenta[c]pyrazol-4(2H)-one], the IC50 is 44 nM.

Consider `COCCn1nc(-c2ccc(F)cn2)c(C)c1Nc1cc(-n2nc(C)c(OC)c2C)ncn1` [Example 544, N-[3-(5-fluoropyridin-2-yl)-1-(2-methoxyethyl)-4-methyl-1H-pyrazol-5-yl]-6-(4-methoxy-3,5-dimethyl-1H-pyrazol-1-yl)pyrimidin-4-amine], for which the IC50 amounted to 11 nM.

In turn, `CCc1c(Nc2cc(-n3nc4c(c3C)CCCC4)ncn2)nn(C)c1-c1ccc(F)cc1` [Example 46, N-[4-ethyl-5-(4-fluorophenyl)-1-methyl-1H-pyrazol-3-yl]-6-(3-methyl-4,5,6,7-tetrahydro-2H-indazol-2-yl)pyrimidin-4-amine] showed an IC50 of 6.5 nM.

Molecule `Cc1cc(C(F)F)n(-c2cc(Nc3c(C)c(-c4ccc(F)cn4)nn3C)ncn2)n1` [Example 465, 6-[5-(difluoromethyl)-3-methyl-1H-pyrazol-1-yl]-N-[3-(5-fluoropyridin-2-yl)-1,4-dimethyl-1H-pyrazol-5-yl]pyrimidin-4-amine] came in with an IC50 of 170 nM.

As to `CC(=O)c1c(C)nn(-c2cc(Nc3c(C)c(-c4ccc(C#N)cc4)nn3CC3CC3)ncn2)c1C` [Example 321, 4-[5-{[6-(4-acetyl-3,5-dimethyl-1H-pyrazol-1-yl)pyrimidin-4-yl]amino}-1-(cyclopropylmethyl)-4-methyl-1H-pyrazol-3-yl]benzonitrile], the concentration for half-maximal inhibition (IC50) turned out to be 16 nM.

On to `CCc1c(Nc2cc(-n3nc(C)cc3C)ncn2)nn(CCOCc2ccccc2)c1-c1ccc(F)cc1` [Example 31, N-{1-[2-(benzyloxy)ethyl]-4-ethyl-5-(4-fluorophenyl)-1H-pyrazol-3-yl}-6-(3,5-dimethyl-1H-pyrazol-1-yl)pyrimidin-4-amine], for which the IC50 is 670 nM.

Molecule `CCc1c(Nc2cc(-n3ncc4c3CCCC4)ncn2)n[nH]c1-c1ccc(F)cc1` [Example 22, N-[4-ethyl-5-(4-fluorophenyl)-1H-pyrazol-3-yl]-6-(4,5,6,7-tetrahydro-1H-indazol-1-yl)pyrimidin-4-amine] had a half-maximal inhibitory concentration (IC50) of 150 nM.

Turning to `CCc1c(Nc2cc(-n3ccc(C)n3)ncn2)nn(C)c1-c1ccc(F)cc1` [Example 242, N-[4-ethyl-5-(4-fluorophenyl)-1-methyl-1H-pyrazol-3-yl]-6-(3-methyl-1H-pyrazol-1-yl)pyrimidin-4-amine], half-maximal inhibition (IC50) was put at 21 nM.

As to `COCCn1nc(-c2ccc(F)cc2)c(C)c1Nc1cc(-n2nc(C)c(Cl)c2C)ncn1` [Example 414, 6-(4-chloro-3,5-dimethyl-1H-pyrazol-1-yl)-N-[3-(4-fluorophenyl)-1-(2-methoxyethyl)-4-methyl-1H-pyrazol-5-yl]pyrimidin-4-amine], the IC50 was determined as 3 nM.

With `Cc1cc(C)n(-c2cc(Nc3c(Cl)c(-c4ccc(F)cc4F)nn3C)ncn2)n1` [Example 50, N-[4-chloro-3-(2,4-difluorophenyl)-1-methyl-1H-pyrazol-5-yl]-6-(3,5-dimethyl-1H-pyrazol-1-yl)pyrimidin-4-amine], the IC50 worked out at 160 nM.
